Experimental data taken from PMC5322338 (Scientific Reports, 2017).
One block for each compound: values may come before it.

Experiments:
[1] = Fluorescence quantum yield; conditions: quenched substrates versus free fluorophores
Source text: We determined the absorption spectrum of the DNP group and the emission spectrum of the ACC fluorophore in four different assay buffers. […] To determine whether this spectral overlap is sufficient for ACC fluorophore quenching, we synthesized ACC-GDEVD-OH, a caspase substrate cleavage product, and compared its fluorescence with that of the full-length substrate ACC-GDEVD*GVK(DNP)D at various concentrations (Fig. 3).

[2] = system: Human neutrophil elastase (HNE); assay: neutrophil elastase in 0.1 M HEPES and 0.5 M NaCl at pH 7.5; conditions: 37 °C, up to 30 min
caspase-3 [3] = assay: caspase-3 in 20 mM Pipes, 0.1 M NaCl, 1 mM EDTA, 10 mM DTT, 10% (w/v) sucrose, pH 7.2 to 7.4; conditions: human, 37 °C, up to 30 min
caspase-7 [4] = assay: caspase-7 in 20 mM Pipes, 0.1 M NaCl, 1 mM EDTA, 10 mM DTT, 10% (w/v) sucrose, pH 7.2 to 7.4; conditions: human, 37 °C, up to 30 min
caspase-8 = caspase-8 in caspase buffer supplemented with 1 M sodium citrate; conditions: human, 37 °C, up to 30 min
caspase-7 [5] = assay: caspase-7 in caspase buffer, IQF library screening and kinetics; conditions: human, 37 °C, up to 30 min
caspase-6 = caspase-6 in caspase buffer, IQF library screening; conditions: human, 37 °C, up to 30 min
caspase-3 [6] = assay: caspase-3 in caspase buffer, IQF library screening and kinetics; conditions: human, 37 °C, up to 30 min
Trypsin = assay: trypsin in 0.05 M Tris, 0.15 M NaCl, 0.01% Triton X100, pH 7.6; conditions: 37 °C, up to 30 min
MMP2 = MMP2 in 0.1 M Tris-HCl, 0.1 M NaCl, 10 mM CaCl2, pH 7.5; conditions: 37 °C, up to 30 min
MMP9 = MMP9 in 0.1 M Tris-HCl, 0.1 M NaCl, 10 mM CaCl2, pH 7.5; conditions: 37 °C, up to 30 min
legumain = legumain in 40 mM citric acid, 1 mM EDTA, 120 mM Na2HPO4, 10 mM DTT, pH 5.8; conditions: human, 37 °C, up to 30 min

fluorescence quantum yield (ϕF) [1]: 0.861
Compound: NC(=O)Cc1cc(=O)oc2cc(N)ccc12 [ACC, 7-amino-4-carbamoylmethylcoumarin]

fluorescence quantum yield (ϕF) [1]: 0.718
Compound: COc1ccc2c(CC(=O)O)cc(=O)oc2c1 [MCA, 7-methoxy-coumarin-4-yl acetic acid]

cleaved bond [2]: V-S
Compound: ACC-GAEPV*SLK(dnp)L-NH2

cleaved bond (caspase-3 [3]): D-G
cleaved bond (caspase-7 [4]): D-G
cleaved bond (caspase-8): D-G
Compound: ACC-GDEVD*GVK(dnp)D-NH2

cleaved bond (caspase-7 [5]): E-A
cleaved bond (caspase-6): E-Ala
cleaved bond (caspase-3 [6]): E-A
Compound: ACC-GDEVE/XKK(dnp)G-NH2 [DEVE/A]

cleaved bond (caspase-7 [5]): E-G
cleaved bond (caspase-6): E-Gly
cleaved bond (caspase-3 [6]): E-G
Compound: ACC-GDEVE/XKK(dnp)G-NH2 [DEVE/G]

cleaved bond (Trypsin): Lysine-I
Compound: ACC-GGLS(P1)*IVK(DNP)G-NH2 [ACC-GGLS(P1)*IVK(DNP)G-NH2, P1 = Lysine]

cleaved bond (Trypsin): Ornithine-I
Compound: ACC-GGLS(P1)*IVK(DNP)G-NH2 [ACC-GGLS(P1)*IVK(DNP)G-NH2, P1 = Ornithine]

cleaved bond (MMP2): G-L
cleaved bond (MMP9): G-L
Compound: ACC-GPLG*LK(dnp)AR-NH2

cleaved bond (legumain): N-K
Compound: ACC-GPTN*KVK(dnp)R-NH2

cleaved bond [2]: V-S
Compound: MCA-GAEPV*SLK(dnp)L-NH2

cleaved bond (caspase-3 [3]): D-G
cleaved bond (caspase-7 [4]): D-G
cleaved bond (caspase-8): D-G
Compound: MCA-GDEVD*GVK(dnp)D-NH2

cleaved bond (MMP2): G-L
cleaved bond (MMP9): G-L
Compound: MCA-GPLG*LK(dnp)AR-NH2

cleaved bond (legumain): N-K
Compound: MCA-GPTN*KVK(dnp)R-NH2
